# Molecular target: T1, N-terminally GST-tagged human full length recombinant Mps-1 kinase (Homo sapiens, UniProt P33981)
# T1 construct: N-terminally GST-tagged human full length recombinant Mps-1 kinase; purchased Invitrogen, Karslruhe, Germany PV4071
# T1 sequence (P33981 1-857): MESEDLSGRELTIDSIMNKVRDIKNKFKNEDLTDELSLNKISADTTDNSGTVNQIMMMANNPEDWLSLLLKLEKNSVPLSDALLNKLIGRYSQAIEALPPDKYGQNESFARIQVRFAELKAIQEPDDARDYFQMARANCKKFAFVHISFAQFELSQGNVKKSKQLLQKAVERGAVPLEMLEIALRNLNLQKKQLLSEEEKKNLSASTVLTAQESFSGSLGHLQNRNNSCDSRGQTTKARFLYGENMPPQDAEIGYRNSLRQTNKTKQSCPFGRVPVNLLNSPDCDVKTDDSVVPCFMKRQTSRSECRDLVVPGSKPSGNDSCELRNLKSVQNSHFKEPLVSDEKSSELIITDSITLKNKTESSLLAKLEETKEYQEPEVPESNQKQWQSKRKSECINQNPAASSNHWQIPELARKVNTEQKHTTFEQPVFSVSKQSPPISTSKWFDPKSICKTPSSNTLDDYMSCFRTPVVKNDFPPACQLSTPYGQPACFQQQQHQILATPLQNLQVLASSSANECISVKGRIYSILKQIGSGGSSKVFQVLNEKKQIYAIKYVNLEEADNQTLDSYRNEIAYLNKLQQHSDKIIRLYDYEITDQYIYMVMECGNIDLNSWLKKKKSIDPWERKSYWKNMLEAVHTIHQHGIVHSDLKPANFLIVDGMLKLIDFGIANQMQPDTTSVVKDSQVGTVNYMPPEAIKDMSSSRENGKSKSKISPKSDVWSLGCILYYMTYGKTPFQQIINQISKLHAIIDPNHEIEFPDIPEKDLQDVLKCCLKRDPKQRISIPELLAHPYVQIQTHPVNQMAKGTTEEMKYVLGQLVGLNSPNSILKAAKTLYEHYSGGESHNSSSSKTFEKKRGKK
# Test: Mps-1 kinase assay (TR-FRET)
# Assay type: biochemical
# Details: Mps1 IC50 [nM], 10 μM ATP, 1 μM peptide substrate, 60 min at 22° C.
# Procedure, shortened: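 TR-FRET signal between a Europium anti-phospho-Ser/Thr antibody and streptavidin-XLent reported phosphorylation of a biotinylated peptide by GST-tagged full-length Mps-1. Enzyme was near 1 nM final, chosen per lot for linearity.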
row,IC50 [nM],Compound
1,90.5,"CC=Cc1cc(NCC(C)(C)O)c2ncc(-c3ccc(-c4cnc(C5CC5)[nH]4)cc3)n2n1 (mixture of isomers) [Example 2, 1-({3-[4-(2-Cyclopropyl-1H-imidazol-5-yl)phenyl]-6-[(1E/Z)-prop-1-en-1-yl]imidazo[1,2-b]pyridazin-8-yl}amino)-2-methylpropan-2-ol]"
2,24.6,"CC(C)CNc1cc(-c2cccc3ccccc23)nn2c(-c3ccc(C(=O)NC4CC4)cc3)cnc12 [Example 102, N-cyclopropyl-4-{8-[(2-methylpropyl)amino]-6-(naphthalen-1-yl)imidazo[1,2-b]pyridazin-3-yl}benzamide]"
3,95.9,"Cc1cc(-c2cnc3c(NCC4CN(C(=O)OC(C)(C)C)C4)cc(-c4ccccc4CO)nn23)ccc1C(=O)NC1CC1 [Example 339, tert-butyl 3-[({3-[4-(cyclopropylcarbamoyl)-3-methylphenyl]-6-[2-(hydroxy-methyl)phenyl]imidazo[1,2-b]pyridazin-8-yl}amino)methyl]azetidine-1-carboxylate]"
4,338,"CNC(=O)c1ccc(-c2cnc3c(NCc4cccs4)cc(Cl)nn23)cc1Cl [Example 186, 2-Chloro-4-{6-chloro-8-[(thiophen-2-ylmethyl)amino]imidazo[1,2-b]pyridazin-3-yl}-N-methylbenzamide]"
5,0.1,"CNc1ccccc1Oc1cc(NCCC(F)(F)F)c2ncc(-c3ccc(C(=O)NC4CC4)c(C)c3)n2n1 [Example 389, N-cyclopropyl-2-methyl-4-{6-[2-(methylamino)phenoxy]-8-[(3,3,3-trifluoropropyl)amino]imidazo[1,2-b]pyridazin-3-yl}benzamide]"
6,27.5,"CC(C)CNc1cc(-c2cncc3ccccc23)nn2c(-c3ccc(C(=O)NC4CC4)cc3)cnc12 [Example 115, N-cyclopropyl-4-{6-(isoquinolin-4-yl)-8-[(2-methylpropyl)amino]imidazo[1,2-b]pyridazin-3-yl}benzamide]"
7,0.9,"Cc1cc(-c2cnc3c(NCC(C)(C)O)cc(Nc4cccc(Cl)c4)nn23)ccc1C(=O)NC1CC1 [Example 355, 4-{6-[(3-chlorophenyl)amino]-8-[(2-hydroxy-2-methylpropyl)amino]imidazo[1,2-b]pyridazin-3-yl}-N-cyclopropyl-2-methylbenzamide]"
8,3.7,"CCNC(=O)c1ccc(-c2cnc3c(NCCOC)cc(Oc4ccc(F)c(F)c4)nn23)cc1C [Example 607, 4-{6-(3,4-difluorophenoxy)-8-[(2-methoxyethyl)a-mino]imidazo[1,2-b]pyridazin-3-yl}-N-ethyl-2-methylbenzamide]"
9,0.2,"Cc1cc(-c2cnc3c(NCC(C)(C)O)cc(Oc4cccc(F)c4F)nn23)ccc1C(=O)NC1CC1 [Example 92, N-cyclopropyl-4-{6-(2,3-difluorophenoxy)-8-[(2-hydroxy-2-methylpropyl)amino]imidazo[1,2-b]pyridazin-3-yl}-2-methylbenzamide]"
10,0.3,"Cc1cc(-c2cnc3c(NCC(C)(C)O)cc(Oc4ccc(F)cc4)nn23)ccc1C(=O)NC1CC1 [Example 253, N-cyclopropyl-4-{6-(4-fluorophenoxy)-8-[(2-hydroxy-2-methylpropyl)amino]imidazo[1,2-b]pyridazin-3-yl}-2-methylbenzamide]"
11,23.8,"CC=Cc1cc(NCC(C)(C)O)c2ncc(-c3ccc(C(=O)NC4CC4)c(C)c3)n2n1 (mixture of isomers) [Example 24, N-cyclopropyl-4-{8-[(2-hydroxy-2-methylpropyl)amino]-6-[(1E/Z)-prop-1-en-1-yl]imidazo[1,2-b]pyridazin-3-yl}-2-methylbenzamide]"
12,7.6,"COc1cc(C(=O)NC2CC2)ccc1-c1cnc2c(NCCC(F)(F)F)cc(-c3ccccc3CO)nn12 [Example 54, N-cyclopropyl-4-{6-[2-(hydroxymethyl)phenyl]-8-[(3,3,3-trifluoropropyl)amino]imidazo[1,2-b]pyridazin-3-yl}-3-methoxybenzamide]"
13,3.6,"Cc1cc(-c2cnc3c(NCC(C)(C)O)cc(SCCC(C)(C)C)nn23)ccc1C(=O)NC1CC1 [Example 217, N-cyclopropyl-4-{6-[(3,3-dimethylbutyl)sulfanyl]-8-[(2-hydroxy-2-methylpropyl)amino]imidazo[1,2-b]pyridazin-3-yl}-2-methylbenzamide]"
14,4.3,"CC(C)(O)CNc1cc(-c2ccc(F)cc2)nn2c(-c3ccc(C(=S)NC4CC4)cc3)cnc12 [Example 32, N-cyclopropyl-4-{6-(4-fluorophenyl)-8-[(2-hydroxy-2-methylpropyl)amino]imidazo[1,2-b]pyridazin-3-yl}benzenecarbothioamide]"
15,0.7,"CNc1cc(Oc2cccc(F)c2F)nn2c(-c3ccc(C(=O)NC4CC4)c(C)c3)cnc12 [Example 528, N-cyclopropyl-4-[6-(2,3-difluorophenoxy)-8-(methylamino)imidazo[1,2-b]pyridazin-3-yl]-2-methylbenzamide]"
16,290,"CC(C)CNc1cc(Cl)nn2c(-c3ccc4c(NC5CC5)noc4c3)cnc12 [Example 183, 6-Chloro-3-[3-(cyclopropylamino)-1,2-benzoxazol-6-yl]-N-(2-methylpropyl)imidazo[1,2-b] pyridazin-8-amine]"
17,0.4,"Cc1cc(-c2cnc3c(NCC4CCS(=O)(=O)CC4)cc(Oc4ccc(F)cc4)nn23)ccc1C(=O)NC1CC1 [Example 295A, N-cyclopropyl-4-[8-{[(1,1-dioxidotetrahydro-2H-thiopyran-4-yl)methyl]amino}-6-(4-fluorophenoxy)imidazo[1,2-b]pyridazin-3-yl]-2-methylbenzamide]"
18,< 1,"Cc1cc(-c2cnc3c(NCC(O)C(F)(F)F)cc(Sc4cccc(F)c4)nn23)ccc1C(=O)NC1CC1 (racemic) [Example 216, (RS)—N-cyclopropyl-4-{6-[(3-fluorophenyl)sulfanyl]-8-[(3,3,3-trifluoro-2-hydroxypropyl)amino]imidazo[1,2-b]pyridazin-3-yl}-2-methylbenzamide]"
19,1.7,"Cc1cc(-c2cnc3c(NCC(C)(C)O)cc(-c4ccccc4F)nn23)ccc1C(=O)NC1CC1 [Example 233, N-cyclopropyl-4-{6-(2-fluorophenyl)-8-[(2-hydroxy-2-methylpropyl)amino]imidazo[1,2-b]pyridazin-3-yl}-2-methylbenzamide]"
20,4,"CC(C)CNc1cc(-c2ccc(C(=O)NC3CC3)cc2)nn2c(-c3ccc(C(=O)NC4CC4)cc3)cnc12 [Example 116, 4,4′-{8-[(2-Methylpropyl)amino]imidazo[1,2-b]pyridazine-3,6-diyl} bis(N-cyclopropylbenzamide)]"
21,101,"CC(C)CNc1cc(Cl)nn2c(-c3ccc(-c4cnc(C5CC5)[nH]4)cc3)cnc12 [Example 184, 6-Chloro-3-[4-(2-cyclopropyl-1H-imidazol-5-yl)phenyl]-N-(2-methylpropyl)imidazo[1,2-b]pyridazin-8-amine]"
22,0.2,"Cc1cc(-c2cnc3c(NCCCS(=O)(=O)O)cc(Oc4cccc(F)c4)nn23)ccc1C(=O)NC1CC1 [Example 547, 3-({3-[4-(cyclopropylcarbamoyl)-3-methylphenyl]-6-(3-fluorophenoxy)imidazo[1,2-b]pyridazin-8-yl}amino)propane-1-sulfonic acid]"
23,0.2,"Cc1cc(-c2cnc3c(NCCC(F)(F)F)cc(Oc4ccc(F)c(F)c4)nn23)ccc1C(=O)NC1CC1 [Example 260, N-cyclopropyl-4-{6-(3,4-difluorophenoxy)-8-[(3,3,3-trifluoropropyl)amino]imidazo[1,2-b]pyridazin-3-yl}-2-methylbenzamide]"
24,0.1,"Cc1cc(-c2cnc3c(NC[C@H]4CC[S@+]([O-])CC4)cc(Sc4cccc(F)c4)nn23)ccc1C(=O)NC1CC1 [Example 304B, N-cyclopropyl-4-(6-[(3-fluorophenyl)sulfanyl]-8-({[(trans)-1-oxidotetrahydro-2H-thiopyran-4-yl]methyl}amino)imidazo[1,2-b]pyridazin-3-yl)-2-methylbenzamide]"
25,< 1,"CNC(=O)c1cccc(-c2cc(NCC(C)C)c3ncc(-c4ccc(C(=O)NC5CC5)cc4)n3n2)c1 [Example 119, 3-{3-[4-(Cyclopropylcarbamoyl)phenyl]-8-[(2-methylpropyl)amino]imidazo[1,2-b]pyridazin-6-yl}-N-methylbenzamide]"
26,0.1,"COc1ccc(Nc2cc(NCCC(F)(F)F)c3ncc(-c4ccc(C(=O)NC5CC5)c(C)c4)n3n2)cc1 [Example 425, N-cyclopropyl-4-{6-[(4-methoxyphenyl)amino]-8-[(3,3,3-trifluoropropyl)amino]imidazo[1,2-b]pyridazin-3-yl}-2-methylbenzamide]"
